The values below are quoted from earlier work in paper PMC11768629, “Potential Interaction of Pinocembrin with Drug Transporters and Hepatic Drug-Metabolizing Enzymes” (Pharmaceuticals, 2025).

Several values for one entry are separate records, joined by “and”; a condition that tells them apart may be missing. Identical values can stand only once. Like-named read-outs stand apart in the source and are kept apart here.

Common to all, as to details: cited from earlier work
One data set relates to CYP2C8. Details: method as in PMID 34069400, doi:10.5562/cca3652, PMID 35721953.
Details of data set [1]: method as in PMID 25814318.
The test system of the next data set is CYP2D6. On the set-up: method as in PMID 34069400, doi:10.5562/cca3652, PMID 26626242.
Setting [2] is: 80 mg intravenous injection, human subjects.

In the case of `O=C1C[C@@H](c2ccccc2)Oc2cc(O)cc(O)c21` [pinocembrin], the “effect on the activity of CYP2C8” value with CYP2C8 is reported as “does not affect”. For the same molecule, the maximal plasma concentration in data set [1] (40 mg intravenous injection) is 0.6 µg/mL and 2.3 µM; in data set [1] (80 mg intravenous injection), 4.7 µM. Further, the T1/2 in data set [1] (setting [2]) is given as 55 min. The “maximal plasma concentration (Cmax)” value in data set [1] (setting [2]) is 1220 ng/mL. In addition, the observed plasma concentration in data set [1] (phase I clinical trials) is 3 to 10 µM. In addition, in the data set with CYP2D6, the “effect on the activity of CYP2D6” value was “inhibits the activities”.
